From ChEMBL document CHEMBL1201861, “Genomics of Drug Sensitity in Cancer screening data, Wellcome Trust Sanger Institute”

How the values were obtained:
Experiment in all cases: cells
Conditions in all cases: Homo sapiens
SHP77 = type: functional, cell-based, SHP-77;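 note: growth inhibition of human SHP-77 cells measured by a cell viability assay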
Description: SANGER: Inhibition of human SHP-77 cell growth in a cell viability assay.

HL-60 = type: functional, cell-based;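 note: growth inhibition of human HL-60 cells, read out with a cell viability assay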
Description: SANGER: Inhibition of human HL-60 cell growth in a cell viability assay.

LOX IMVI = type: functional, cell-based
Description: SANGER: Inhibition of human LOXIMVI cell growth in a cell viability assay.

KLE = type: functional, cell-based;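 note: growth inhibition of human KLE cells, read out with a cell viability assay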
Description: SANGER: Inhibition of human KLE cell growth in a cell viability assay.

C8166 = type: functional, cell-based;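 note: growth inhibition of human C8166 cells measured by a cell viability assay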
Description: SANGER: Inhibition of human C8166 cell growth in a cell viability assay.

KG-1 = type: functional, cell-based;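 note: growth inhibition of KG-1 cells, read out by a cell viability assay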
Description: SANGER: Inhibition of human KG-1 cell growth in a cell viability assay.

NCI-H1838 = type: functional, cell-based;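 note: growth inhibition of NCI-H1838 cells, determined with a cell viability readout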
Description: SANGER: Inhibition of human NCI-H1838 cell growth in a cell viability assay.

KNS-42 = type: functional, cell-based;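 note: growth inhibition of KNS-42 cells, read out with a cell viability assay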
Description: SANGER: Inhibition of human KNS-42 cell growth in a cell viability assay.

HDLM-2 = type: functional, cell-based;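 note: cell viability assay measuring suppression of HDLM-2 proliferation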
Description: SANGER: Inhibition of human HDLM-2 cell growth in a cell viability assay.

LAN-6 = type: functional, cell-based;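 note: growth inhibition of LAN-6 cells, determined with a cell viability assay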
Description: SANGER: Inhibition of human LAN-6 cell growth in a cell viability assay.

SNU-C2B = type: functional, cell-based;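 note: cell viability readout used to measure compound-driven suppression of SNU-C2B cell proliferation, IC50 marking half-maximal growth inhibition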
Description: SANGER: Inhibition of human SNU-C2B cell growth in a cell viability assay.

RPMI-8226 = type: functional, cell-based
Description: SANGER: Inhibition of human RPMI-8226 cell growth in a cell viability assay.

TK-10 = type: functional, cell-based;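 note: growth inhibition of TK-10 cells, read out in a cell viability assay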
Description: SANGER: Inhibition of human TK10 cell growth in a cell viability assay.

LB1047-RCC = type: functional, cell-based;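 note: inhibition of cell growth, determined with a cell viability assay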
Description: SANGER: Inhibition of human LB1047-RCC cell growth in a cell viability assay.

Ramos-2G6-4C10 = type: functional, cell-based;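 note: growth inhibition of the cell line, measured by a cell viability read-out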
Description: SANGER: Inhibition of human Ramos-2G6-4C10 cell growth in a cell viability assay.

NCI-H1770 = type: functional, cell-based;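 note: growth inhibition of NCI-H1770 cells determined with a viability readout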
Description: SANGER: Inhibition of human NCI-H1770 cell growth in a cell viability assay.

SW 954 = type: functional, cell-based;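 note: growth inhibition of SW954 human cancer cells, read out as cell viability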
Description: SANGER: Inhibition of human SW954 cell growth in a cell viability assay.

NCI-H1648 = type: functional, cell-based;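 note: cell viability assay measuring inhibition of NCI-H1648 cell growth, from the Sanger screening data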
Description: SANGER: Inhibition of human NCI-H1648 cell growth in a cell viability assay.

LS-513 = type: functional, cell-based
Description: SANGER: Inhibition of human LS-513 cell growth in a cell viability assay.

MN-60 = type: functional, cell-based;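 note: growth inhibition of the MN-60 cell line, determined with a cell viability assay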
Description: SANGER: Inhibition of human MN-60 cell growth in a cell viability assay.

MOLT-16 = type: functional, cell-based;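 note: growth inhibition of human MOLT-16 cells, read out with a cell viability assay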
Description: SANGER: Inhibition of human MOLT-16 cell growth in a cell viability assay.

KS-1 = type: functional, cell-based;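 note: growth inhibition of KS-1 cells, read out with a cell viability assay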
Description: SANGER: Inhibition of human KS-1 cell growth in a cell viability assay.

MZ1-PC = type: functional, cell-based;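 note: cell viability assay measuring growth inhibition of human MZ1-PC cells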
Description: SANGER: Inhibition of human MZ1-PC cell growth in a cell viability assay.

NOMO-1 = type: functional, cell-based;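 note: growth inhibition of human NOMO-1 cells measured by a cell viability assay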
Description: SANGER: Inhibition of human NOMO-1 cell growth in a cell viability assay.

J-RT3-T3-5 = type: functional, cell-based;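 note: cell viability assay measuring growth inhibition of human J-RT3-T3-5 cells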
Description: SANGER: Inhibition of human J-RT3-T3-5 cell growth in a cell viability assay.

JAR = type: functional, cell-based;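 note: growth inhibition of human JAR cells determined with a cell viability assay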
Description: SANGER: Inhibition of human JAR cell growth in a cell viability assay.

Calu-6 = type: functional, cell-based;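 note: growth of human Calu-6 cells, read out by a cell viability assay, IC50 marking inhibition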
Description: SANGER: Inhibition of human Calu-6 cell growth in a cell viability assay.

NCI-H1155 = type: functional, cell-based;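 note: cell growth inhibition measured by a viability assay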
Description: SANGER: Inhibition of human NCI-H1155 cell growth in a cell viability assay.

A704 = type: functional, cell-based;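 note: growth inhibition of human A704 cells, read out with a cell viability assay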
Description: SANGER: Inhibition of human A704 cell growth in a cell viability assay.

OMC-1 = type: functional, cell-based;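 note: growth inhibition of the OMC-1 cell line, measured by a cell viability assay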
Description: SANGER: Inhibition of human OMC-1 cell growth in a cell viability assay.

GAK = type: functional, cell-based;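 note: cell growth inhibition read out by a cell viability assay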
Description: SANGER: Inhibition of human GAK cell growth in a cell viability assay.

LB831-BLC = type: functional, cell-based;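 note: growth inhibition of LB831-BLC cells, read out with a cell viability assay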
Description: SANGER: Inhibition of human LB831-BLC cell growth in a cell viability assay.

GOTO = type: functional, cell-based;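 note: growth inhibition of GOTO cells, read out by a cell viability assay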
Description: SANGER: Inhibition of human GOTO cell growth in a cell viability assay.

SCH = type: functional, cell-based;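 note: growth inhibition of human SCH cells, read out in a cell viability assay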
Description: SANGER: Inhibition of human SCH cell growth in a cell viability assay.

RXF 393 = type: functional, cell-based;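 note: growth inhibition of human RXF 393 cells, read out with a cell viability assay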
Description: SANGER: Inhibition of human RXF393 cell growth in a cell viability assay.

ES8 = type: functional, cell-based;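 note: growth inhibition of human ES8 cells, read out with a cell viability assay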
Description: SANGER: Inhibition of human ES8 cell growth in a cell viability assay.

697 = type: functional, cell-based
Description: SANGER: Inhibition of human 697 cell growth in a cell viability assay.

GB-1 = type: functional, cell-based;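 note: growth of GB-1 cells judged by a viability assay, IC50 marks the concentration inhibiting growth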
Description: SANGER: Inhibition of human GB-1 cell growth in a cell viability assay.

SK-PN-DW = type: functional, cell-based;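 note: growth inhibition measured with a viability assay on these cells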
Description: SANGER: Inhibition of human SK-PN-DW cell growth in a cell viability assay.

SK-MEL-2 = type: functional, cell-based;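 note: growth inhibition of human SK-MEL-2 cells measured with a cell viability assay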
Description: SANGER: Inhibition of human SK-MEL-2 cell growth in a cell viability assay.

NTERA-2-cl-D1 = type: functional, cell-based;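 note: inhibition of cell growth, measured with a cell viability assay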
Description: SANGER: Inhibition of human NTERA-S-cl-D1 cell growth in a cell viability assay.

OCUB-M = type: functional, cell-based;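 note: growth inhibition of the cancer cell line, read out through a cell viability assay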
Description: SANGER: Inhibition of human OCUB-M cell growth in a cell viability assay.

ETK-1 = type: functional, cell-based;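 note: growth inhibition of human ETK-1 cells, read out with a cell viability assay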
Description: SANGER: Inhibition of human ETK-1 cell growth in a cell viability assay.

SNU1 = type: functional, cell-based;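 note: growth inhibition of human NCI-SNU-1 cells, measured with a cell viability assay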
Description: SANGER: Inhibition of human NCI-SNU-1 cell growth in a cell viability assay.

IST-SL1 = type: functional, cell-based;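 note: growth inhibition of human IST-SL1 cells, read out with a cell viability assay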
Description: SANGER: Inhibition of human IST-SL1 cell growth in a cell viability assay.

ES5 = type: functional, cell-based;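 note: growth inhibition of human ES5 cells, read out by a cell viability assay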
Description: SANGER: Inhibition of human ES5 cell growth in a cell viability assay.

KARPAS-299 = type: functional, cell-based
Description: SANGER: Inhibition of human KARPAS-299 cell growth in a cell viability assay.

GR-ST = type: functional, cell-based
Description: SANGER: Inhibition of human GR-ST cell growth in a cell viability assay.

GI-1 = type: functional, cell-based;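 note: growth inhibition of human GI-1 cells, measured with a cell viability readout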
Description: SANGER: Inhibition of human GI-1 cell growth in a cell viability assay.

LU-134-A = type: functional, cell-based
Description: SANGER: Inhibition of human LU-134-A cell growth in a cell viability assay.

SH-4 = type: functional, cell-based;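 note: growth inhibition of SH-4 cells, read out with a cell viability assay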
Description: SANGER: Inhibition of human SH-4 cell growth in a cell viability assay.

MC116 = type: functional, cell-based;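 note: growth inhibition of MC116 cells, read out with a cell viability assay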
Description: SANGER: Inhibition of human MC116 cell growth in a cell viability assay.

MHH-PREB-1 = type: functional, cell-based;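 note: cell viability assay measuring inhibition of proliferation of human MHH-PREB-1 cells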
Description: SANGER: Inhibition of human MHH-PREB-1 cell growth in a cell viability assay.

no-11 = type: functional, cell-based;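 note: growth inhibition of human NO-11 cells, read out with a cell viability assay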
Description: SANGER: Inhibition of human no-11 cell growth in a cell viability assay.

ES1 = type: functional, cell-based;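 note: growth inhibition of ES1 cells, read out with a cell viability assay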
Description: SANGER: Inhibition of human ES1 cell growth in a cell viability assay.

NCI-H1355 = type: functional, cell-based;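 note: growth inhibition of human NCI-H1355 cells, read out by a cell viability assay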
Description: SANGER: Inhibition of human NCI-H1355 cell growth in a cell viability assay.

EOL1 = type: functional, cell-based
Description: SANGER: Inhibition of human EoL-1-cell cell growth in a cell viability assay.

NCI-H69 = type: functional, cell-based
Description: SANGER: Inhibition of human NCI-H69 cell growth in a cell viability assay.

JVM-2 = type: functional, cell-based
Description: SANGER: Inhibition of human JVM-2 cell growth in a cell viability assay.

HCC2218 = type: functional, cell-based
Description: SANGER: Inhibition of human HCC2218 cell growth in a cell viability assay.

SBC-1 = type: functional, cell-based
Description: SANGER: Inhibition of human SBC-1 cell growth in a cell viability assay.

KU812 cell line = type: functional, cell-based
Description: SANGER: Inhibition of human KU812 cell growth in a cell viability assay.

KY821 = type: functional, cell-based
Description: SANGER: Inhibition of human KY821 cell growth in a cell viability assay.

With `O=c1cc(N2CCOCC2)oc2c(-c3cccc4c3sc3ccccc34)cccc12` the IC50 (SHP77) was over 2000 nM, the IC50 (HL-60) was 1380 nM and the IC50 (LOX IMVI) was over 2000 nM. For the same compound, the IC50 (KLE) was over 2000 nM, the IC50 (C8166) was over 2000 nM and the IC50 (KG-1) was over 2000 nM. It also gave an IC50 (NCI-H1838) of over 2000 nM, an IC50 (KNS-42) of over 2000 nM and an IC50 (HDLM-2) of 323 nM. The IC50 (LAN-6) was over 2000 nM, the IC50 (SNU-C2B) was over 2000 nM and the IC50 (RPMI-8226) was over 2000 nM. It also gave an IC50 (TK-10) of over 2000 nM, an IC50 (LB1047-RCC) of over 2000 nM and an IC50 (Ramos-2G6-4C10) of over 2000 nM. It also gave an IC50 (NCI-H1770) of 21.4 nM, an IC50 (SW 954) of over 2000 nM and an IC50 (NCI-H1648) of over 2000 nM. For the same compound, the IC50 (LS-513) was over 2000 nM, the IC50 (MN-60) was over 2000 nM and the IC50 (MOLT-16) was over 2000 nM. It also gave an IC50 (KS-1) of over 2000 nM, an IC50 (MZ1-PC) of over 2000 nM and an IC50 (NOMO-1) of over 2000 nM. For the same compound, the IC50 (J-RT3-T3-5) was over 2000 nM, the IC50 (JAR) was over 2000 nM and the IC50 (Calu-6) was over 2000 nM. For the same compound, the IC50 (NCI-H1155) was over 2000 nM, the IC50 (A704) was over 2000 nM and the IC50 (OMC-1) was over 2000 nM. For the same compound, the IC50 (GAK) was over 2000 nM, the IC50 (LB831-BLC) was over 2000 nM and the IC50 (GOTO) was over 2000 nM. It also gave an IC50 (SCH) of over 2000 nM, an IC50 (RXF 393) of over 2000 nM and an IC50 (ES8) of over 2000 nM. The IC50 697 was over 2000 nM, the IC50 (GB-1) was over 2000 nM and the IC50 (SK-PN-DW) was over 2000 nM. For the same compound, the IC50 (SK-MEL-2) was over 2000 nM, the IC50 (NTERA-2-cl-D1) was over 2000 nM and the IC50 (OCUB-M) was over 2000 nM. The IC50 (ETK-1) was over 2000 nM, the IC50 (SNU1) was 610 nM and the IC50 (IST-SL1) was over 2000 nM. The IC50 (ES5) was over 2000 nM, the IC50 (KARPAS-299) was over 2000 nM and the IC50 (GR-ST) was over 2000 nM. It also gave an IC50 (GI-1) of over 2000 nM, an IC50 (LU-134-A) of over 2000 nM and an IC50 (SH-4) of over 2000 nM. For the same compound, the IC50 (MC116) was over 2000 nM, the IC50 (MHH-PREB-1) was over 2000 nM and the IC50 (no-11) was over 2000 nM. It also gave an IC50 (ES1) of over 2000 nM and an IC50 (NCI-H1355) of over 2000 nM.
Work on `Cn1c(=O)n(-c2ccc(C(C)(C)C#N)cc2)c2c3cc(-c4cnc5ccccc5c4)ccc3ncc21` [DACTOLISIB] yielded an IC50 (SHP77) of over 2000 nM, an IC50 (HL-60) of 123 nM and an IC50 (LOX IMVI) of 15 nM. For the same compound, the IC50 (KLE) was 252 nM, the IC50 (C8166) was over 2000 nM and the IC50 (KG-1) was 84.2 nM. The IC50 (NCI-H1838) was 1020 nM, the IC50 (KNS-42) was 144 nM and the IC50 (HDLM-2) was over 2000 nM. For the same compound, the IC50 (LAN-6) was over 2000 nM, the IC50 (SNU-C2B) was 181 nM and the IC50 (RPMI-8226) was 33.8 nM. For the same compound, the IC50 (TK-10) was 100 nM, the IC50 (LB1047-RCC) was 38.8 nM and the IC50 (Ramos-2G6-4C10) was 8.49 nM. It also gave an IC50 (NCI-H1770) of 327 nM, an IC50 (SW 954) of 234 nM and an IC50 (NCI-H1648) of 113 nM. For the same compound, the IC50 (LS-513) was 141 nM, the IC50 (MN-60) was 38 nM and the IC50 (EOL1) was 13.9 nM. It also gave an IC50 (MOLT-16) of 17.2 nM, an IC50 (KS-1) of 44.7 nM and an IC50 (MZ1-PC) of 206 nM. The IC50 (NOMO-1) was 45.9 nM, the IC50 (J-RT3-T3-5) was 23 nM and the IC50 (JAR) was 956 nM. The IC50 (Calu-6) was over 2000 nM, the IC50 (NCI-H69) was 427 nM and the IC50 (NCI-H1155) was 48.3 nM. For the same compound, the IC50 (A704) was 55.6 nM, the IC50 (OMC-1) was 100 nM and the IC50 (GAK) was 98.9 nM. It also gave an IC50 (LB831-BLC) of 121 nM, an IC50 (GOTO) of 250 nM and an IC50 (SCH) of 67.1 nM. The IC50 (RXF 393) was 21.4 nM, the IC50 (JVM-2) was over 2000 nM and the IC50 (HCC2218) was 6.61 nM. For the same compound, the IC50 (ES8) was 10.9 nM, the IC50 697 was 17.4 nM and the IC50 (GB-1) was 54.2 nM. For the same compound, the IC50 (SK-PN-DW) was 235 nM, the IC50 (SK-MEL-2) was 76.7 nM and the IC50 (NTERA-2-cl-D1) was 43 nM. The IC50 (SBC-1) was under 7.81 nM, the IC50 (OCUB-M) was 82.4 nM and the IC50 (ETK-1) was 7.88 nM. The IC50 (SNU1) was 22 nM, the IC50 (KU812 cell line) was 68.7 nM and the IC50 (IST-SL1) was 1440 nM. The IC50 (ES5) was 14.7 nM, the IC50 (KARPAS-299) was 1790 nM and the IC50 (GR-ST) was 52.9 nM. It also gave an IC50 (GI-1) of 60.3 nM, an IC50 (LU-134-A) of 79 nM and an IC50 (SH-4) of 75.2 nM. The IC50 (MC116) was 57.8 nM, the IC50 (MHH-PREB-1) was 9.12 nM and the IC50 (no-11) was 113 nM. It also gave an IC50 (ES1) of 28.8 nM, an IC50 (KY821) of 56.2 nM and an IC50 (NCI-H1355) of 46.3 nM.
